Earlier results as cited in US20030018166A1 (priority 2000, published 2003).
Read-outs that look alike come from different tables or passages of the source.

Biological target: T1, M. avium ICL (UniProt P9WKK7)
T1 construct: The proteins were purified by the 6His-tag attached to the N terminus; fused on or other part: N-terminal 6His tag
T1 sequence (P9WKK7 1-428): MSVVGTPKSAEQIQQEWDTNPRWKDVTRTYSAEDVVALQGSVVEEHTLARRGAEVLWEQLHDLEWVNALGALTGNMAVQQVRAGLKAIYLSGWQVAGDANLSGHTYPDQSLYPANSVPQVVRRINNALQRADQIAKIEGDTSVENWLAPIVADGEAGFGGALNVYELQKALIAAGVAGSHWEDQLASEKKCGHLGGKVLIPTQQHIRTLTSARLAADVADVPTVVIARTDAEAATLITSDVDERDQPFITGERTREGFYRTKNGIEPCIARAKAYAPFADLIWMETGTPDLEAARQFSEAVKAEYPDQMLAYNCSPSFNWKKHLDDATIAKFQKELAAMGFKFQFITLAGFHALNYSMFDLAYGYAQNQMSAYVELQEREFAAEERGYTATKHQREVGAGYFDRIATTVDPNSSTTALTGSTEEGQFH
Conditions: Schloss and Cleland, 1982, cited from earlier work

SMILES: O=C(O)C(=O)CBr [bromopyruvate, 3-bromopyruvate]
- Ki: 120 µM

SMILES: O=C(O)CC[N+](=O)[O-] [3-nitropropionate]
- Ki (read-out: Ki): 3 µM
